# Data published in patent US8637463B2, “Peptide inhibiting angiotensin converting enzyme” (Meiji Dairies Corporation, priority 2003, dated 2014).
# Where a SMILES comes first, the peptide text is derived from it. Where no end group is shown, it is not given here.
# How the values were obtained:
# [1] = target: Angiotensin Converting Enzyme (Homo sapiens, UniProt P12821); experiment: ACE inhibitory activity with Hippuryl-His-Leu substrate, absorbance at 228 nm; format: biochemical
# Description: Each of the peptides of SEQ ID NOs:1 to 7 was synthesized using an automatic peptide synthesizer. It was confirmed by reverse phase HPLC that the purity of each of the thus obtained peptides is 95%. Each of these synthetic peptides was dissolved in 0.1 M borate buffer (pH 8.3). Subsequently, 0.1 ml of an enzyme solution (Angiotensin Converting Enzyme: 2 units/ml) and 0.04 ml of each of the sample solutions were mixed therewith, followed by heating to 37° C. A 0.1 ml portion of a substrate solution (Hippuryl-His-Leu; N-Benzoyl-Gly-His-Leu) was added thereto, followed by thorough stirring. After allowing the mixture to react at 37° C. for 60 minutes, the reaction was stopped by adding 0.13 ml of 1 N hydrochloric acid. Then, 0.85 ml of ethyl acetate was added thereto, followed by shaking for 1 minute, and then the mixture was centrifuged at 3,000 rpm for 10 minutes. A 0.7 ml portion of the supernatant was recovered, and the solvent was removed using a centrifugal evaporator (about 30 minutes). The residual matters were dissolved by adding 0.5 ml of distilled water, and the absorbance at a wavelength of 228 nm was measured.
# The activity of inhibiting ACE (%) was calculated by the following mathematical expression 1. Activity of inhibiting ACE(%)={(A−B)−(C−D)}/(A−B)×100 Mathematical expression 1
# In this connection, A in the expression is absorbance of the control when the enzyme is used, B is the absorbance of the control when the enzyme is not used, C is absorbance of the sample when the enzyme is used, and D is absorbance of the sample when the enzyme is not used. In addition, 0.1 M borate buffer was used in the control instead of the sample solution.
# Based on the thus obtained ACE inhibitory activities, IC50 of each peptide was calculated.
# ACE inhibitory activities (%) of the 4 peptides, Leu-Met-Ala-Pro (SEQ ID NO:4), Arg-Met-Ala-Pro (SEQ ID NO:5), Met-Ala-Pro-Pro (SEQ ID NO:6) and Arg-Met-Ala-Pro-Pro (SEQ ID NO:7), which have Met-Ala-Pro as a partial structure, were obtained by the same method of Example 2, and their IC50's were calculated.
# [2] = target: ACE (Homo sapiens, UniProt P12821); details: known ACE-inhibiting peptides from casein and corn protein α-zein; cited from earlier work
# Chain of ACE (P12821 30-1306, species assumed): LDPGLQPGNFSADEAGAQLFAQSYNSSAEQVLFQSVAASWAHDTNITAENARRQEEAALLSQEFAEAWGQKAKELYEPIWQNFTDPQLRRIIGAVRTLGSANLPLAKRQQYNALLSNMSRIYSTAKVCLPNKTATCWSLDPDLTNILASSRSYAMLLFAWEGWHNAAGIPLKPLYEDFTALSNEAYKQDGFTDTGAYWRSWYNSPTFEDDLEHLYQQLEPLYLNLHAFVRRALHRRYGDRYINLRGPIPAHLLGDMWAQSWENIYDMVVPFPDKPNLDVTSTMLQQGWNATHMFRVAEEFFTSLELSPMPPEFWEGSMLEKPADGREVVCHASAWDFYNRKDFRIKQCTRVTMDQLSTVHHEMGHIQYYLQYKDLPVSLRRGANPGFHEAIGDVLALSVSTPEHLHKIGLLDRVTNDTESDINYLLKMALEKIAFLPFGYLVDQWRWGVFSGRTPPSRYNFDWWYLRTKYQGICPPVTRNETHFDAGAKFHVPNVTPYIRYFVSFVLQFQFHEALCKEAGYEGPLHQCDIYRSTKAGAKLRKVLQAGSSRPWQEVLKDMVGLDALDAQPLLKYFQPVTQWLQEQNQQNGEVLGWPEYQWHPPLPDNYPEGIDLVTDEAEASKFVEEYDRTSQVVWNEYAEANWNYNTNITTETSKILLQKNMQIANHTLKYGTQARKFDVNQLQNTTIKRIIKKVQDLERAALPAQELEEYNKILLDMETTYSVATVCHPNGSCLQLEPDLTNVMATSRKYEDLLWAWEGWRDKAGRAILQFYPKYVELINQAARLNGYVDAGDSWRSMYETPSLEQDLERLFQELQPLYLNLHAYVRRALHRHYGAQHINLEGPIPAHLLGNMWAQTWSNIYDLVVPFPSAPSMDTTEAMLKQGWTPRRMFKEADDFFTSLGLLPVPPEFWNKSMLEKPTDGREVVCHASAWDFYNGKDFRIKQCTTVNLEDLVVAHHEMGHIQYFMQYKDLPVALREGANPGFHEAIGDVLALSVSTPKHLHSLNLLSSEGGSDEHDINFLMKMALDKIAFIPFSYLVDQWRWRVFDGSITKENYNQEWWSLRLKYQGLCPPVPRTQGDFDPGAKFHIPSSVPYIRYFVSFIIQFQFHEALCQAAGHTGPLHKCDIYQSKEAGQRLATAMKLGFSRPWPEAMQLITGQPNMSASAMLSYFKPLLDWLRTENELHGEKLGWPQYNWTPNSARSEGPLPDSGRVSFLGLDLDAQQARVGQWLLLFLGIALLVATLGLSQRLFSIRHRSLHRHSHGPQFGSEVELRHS
# [3] = peptides having Met-Ala-Pro as a partial structure, same method as Example 2, Table 2
# [4] = synthetic peptide, 0.1 M borate buffer pH 8.3, 37° C., 60 minutes, Table 1
# Chain of Angiotensin Converting Enzyme (P12821 30-1306, species assumed): as above
"IC50 [1, 3]",Molecule,IC50 [2],other results
27.9 µM,CSCC[C@H](NC(=O)[C@@H](N)CC(C)C)C(=O)N[C@@H](C)C(=O)N1CCC[C@H]1C(=O)O [Leu-Met-Ala-Pro] (H-LMAP-OH; N-terminus and C-terminus assumed),–,–
–,CC[C@H](C)[C@H](N)C(=O)N[C@@H](CCC(N)=O)C(=O)N[C@@H](C)C(=O)O [Ile-Gln-Ala] (H-Ile-Gln-Ala-OH; N-terminus and C-terminus assumed),–,"IC50 [1, 4]: 64.1 µM"
–,Val-Pro-Pro [VPP],9 µM,–
–,"Val-Ala-Pro [VAP, casein-derived peptide]",2 µM,–
–,CC[C@H](C)[C@H](N)C(=O)N[C@@H](Cc1c[nH]cn1)C(=O)N[C@@H](C)C(=O)O [Ile-His-Ala] (H-Ile-His-Ala-OH; N-terminus and C-terminus assumed),–,"IC50 [1, 4]: 394 µM"
–,"Ile-Pro-Pro [IPP, casein-derived peptide]",5 µM,–
24 µM,CSCC[C@H](NC(=O)[C@@H](N)CCCNC(=N)N)C(=O)N[C@@H](C)C(=O)N1CCC[C@H]1C(=O)O [Arg-Met-Ala-Pro] (H-RMAP-OH; N-terminus and C-terminus assumed),–,–
28.3 µM,CSCC[C@H](N)C(=O)N[C@@H](C)C(=O)N1CCC[C@H]1C(=O)N1CCC[C@H]1C(=O)O [Met-Ala-Pro-Pro] (H-MAPP-OH; N-terminus and C-terminus assumed),–,–
–,"Leu-Gln-Pro [LQP, corn protein α-zein-derived peptide]",2 µM,–
255 µM,RMAPP [Arg-Met-Ala-Pro-Pro],–,–
